According to ChEMBL document CHEMBL4004860, “Medicinal plants used as anthelmintics: Ethnomedical, pharmacological, and phytochemical studies” (Eur J Med Chem, 2017):

Columns and labels:
Format in all cases: functional
Rodentolepis nana = assay: Antihelmintic activity against Hymenolepis nana
Meloidogyne incognita [1] = assay: Nematocidal activity against Meloidogyne incognita; settings: for IC50: Meloidogyne incognita
Caenorhabditis elegans = assay: Nematocidal activity against Caenorhabditis elegans
Brugia malayi = assay: Antiparasitic activity against Brugia malayi
Metaphire posthuma = assay: Antihelmintic activity against Pheretima posthuma
Ascaridia galli = assay: Antihelmintic activity against Ascaridia galli
Taenia crassiceps = assay: Cysticidal activity against Taenia crassiceps cysts after 11 days by trypan blue exclusion method; settings: 264 h
Haemonchus contortus [2] = assay: Nematocidal activity against Haemonchus contortus
[3] = system: Nippostrongylus brasiliensis; assay: Nematocidal activity against Nippostrongylus brasiliensis L4 larval stage
Meloidogyne incognita [4] = assay: Nematocidal activity against Meloidogyne incognita second-stage juveniles up to 72 hrs
[5] = Antiparasitic activity against Taenia solium
Haemonchus contortus [6] = assay: Antihelmintic activity against larval stage of Haemonchus contortus
Haemonchus contortus [7] = assay: Antihelmintic activity against egg stage of Haemonchus contortus
Haemonchus contortus [8] = assay: Antihelmintic activity against Haemonchus contortus L3 larval stage
[9] = system: Trichostrongylus colubriformis; assay: Antihelmintic activity against Trichostrongylus colubriformis
Ascaris suum = assay: Antiparasitic activity against L3 and L4 larval stages of Ascaris suum
Schistosoma mansoni = assay: Antiparasitic activity against Schistosoma mansoni
Setaria cervi = assay: Antiparasitic activity against Setaria cervi
Meloidogyne incognita [10] = assay: Nematocidal activity against Meloidogyne incognita second-stage juveniles after 3 days by light microscopic method
Paramphistomum = assay: Antiparasitic activity against Paramphistomum sp.
[11] = system: Raillietina echinobothrida; assay: Antiparasitic activity against Raillietina echinobothrida
Panagrellus redivivus = assay: Antiparasitic activity against Panagrellus redivivus
[12] = system: Bursaphelenchus xylophilus; assay: Antiparasitic activity against Bursaphelenchus xylophilus

## CCCCC[C@H](O)C[C@H](O)CCc1ccc(O)c(OC)c1
Rodentolepis nana
  EC: 0.001 mM

## CC(C)=CC(=O)O[C@@H]1CC(C)(C)C[C@H]2C3=CC(=O)[C@@H]4[C@]56CC[C@](O)(OC5)C(C)(C)[C@@H]6CC[C@@]4(C)[C@]3(C)CC[C@@]12C(=O)O
Meloidogyne incognita [1]
  EC: 1.71 mM

## CC[C@H](CC[C@@H](C)[C@H]1CC[C@@H]2[C@]1(C)CC[C@H]1[C@@]2(C)CC=C2C[C@@H](O[C@@H]3O[C@H](CO)[C@@H](O)[C@H](O)[C@H]3O)CC[C@@]21C)C(C)C
Caenorhabditis elegans
  IC50: 140 µM
Brugia malayi
  EC: >0.86 mM

## C=CCc1ccc(OC)cc1 [ESTRAGOLE]
Meloidogyne incognita [1]
  IC50: 1250 µM

## O=C1OCCN2Oc3ccccc3C12 (stereo not given)
Metaphire posthuma
  EC: 5.23 mM
Ascaridia galli
  EC: 5.23 mM

## C[C@H]1CC[C@@]2(OC1)O[C@H]1C[C@H]3[C@@H]4CC[C@H]5C[C@@H](O[C@@H]6O[C@H](CO)[C@H](O[C@@H]7O[C@H](CO)[C@@H](O)[C@H](O[C@@H]8OC[C@@H](O)[C@H](O)[C@H]8O)[C@H]7O[C@@H]7OC[C@@H](O)[C@H](O)[C@H]7O)[C@H](O)[C@H]6O[C@@H]6O[C@@H](C)[C@H](O)[C@@H](O)[C@H]6O)CC[C@]5(C)[C@H]4CC[C@]3(C)[C@H]1[C@@H]2C
Caenorhabditis elegans
  IC50: 60 µM

## CCCCCC(=O)/C=C(O)/C=C/c1ccc(O)c(OC)c1
Rodentolepis nana
  EC: 0.001 mM

## O=c1cc(-c2ccccc2)oc2cc(O)cc(O)c12 [CHRYSIN]
Taenia crassiceps
  IC50: 80 µM

## COc1cc(CCC(=O)C[C@@H](O)CCc2ccc(O)c(OC)c2)ccc1O
Rodentolepis nana
  EC: 0.001 mM

## C=C1C(=O)O[C@@H]2[C@H]3C(CO)=CC(=O)C3=C(C)CC[C@@H]12 [DEOXYLACTUCIN]
Haemonchus contortus [2]
  EC: 4.99 mM

## C=C1CC[C@H]2[C@@](C)(CCC[C@]2(C)C(=O)O)[C@@H]1C/C=C(\C)[C@@H]1CCc2c(O)c(C(=O)CCC)c(O)c(CC3=C(O)C(C)(C)C(O)=C(C(C)=O)C3=O)c2O1
[3]
  IC50: 34 µM

## C=CCc1ccc(O)c(OC)c1 [EUGENOL]
Caenorhabditis elegans
  IC50: 370 µM
Meloidogyne incognita [1]
  IC50: 400 µM

## CC(C)[C@]12C=C[C@](C)(CC1)COOC2
Meloidogyne incognita [4]
  IC50: 7860 µM

## CC[C@H](CC[C@@H](C)[C@H]1CC[C@]2(C)[C@]1(C)CC[C@@H]1[C@@]3(C)CC[C@H](O[C@@H]4O[C@H](CO)[C@@H](O)[C@H](O)[C@H]4O)CC3=CC[C@]12C)C(C)C
[5]
  EC: 17.34 mM

## C/C=C/c1ccc(OC)cc1 [ANETHOLE]
Haemonchus contortus [6]
  IC50: 14200 µM
Haemonchus contortus [7]
  IC50: 4650 µM

## C=C(C)[C@@H]1CC[C@]2(C(=O)O)CC[C@]3(C)[C@H](CC[C@@H]4[C@@]5(C)CC[C@H](O)C(C)(C)[C@@H]5CC[C@]43C)[C@@H]12 [BETULINIC ACID]
Caenorhabditis elegans
  IC50: 150 to 220 µM
Haemonchus contortus [8]
  IC50: 110 µM
[5]
  EC: 21.9 mM
[9]
  IC50: 180 µM

## CC1(C)C[C@@H](O)[C@]2(C(=O)O)CC[C@]3(C)C(=CC[C@@H]4[C@@]5(C)CCC(=O)C(C)(C)[C@@H]5CC[C@]43C)[C@@H]2C1
Meloidogyne incognita [1]
  EC: 2.12 mM

## O=C/C=C/c1ccccc1 [CINNAMALDEHYDE]
Ascaris suum
  EC: 0.2 mM

## CC(C)CCCCCCCCCCCCCC(=O)OC[C@@H](O)CO
[5]
  EC: 29.5 mM

## CC(C)=C[C@H](O)C[C@@H](C)[C@H]1CC[C@@]2(C)[C@@H]3[C@@H](O)C=C4[C@@H](CC[C@H](O)C4(C)C)[C@@]3(C=O)CC[C@]12C
Caenorhabditis elegans
  IC50: 30 µM

## CCN(CC)c1ccc2c(C)cc(=O)oc2c1
Metaphire posthuma
  EC: 4.32 mM
Ascaridia galli
  EC: 4.32 mM

## Cc1ccc(C(C)C)c(O)c1 [THYMOL]
Haemonchus contortus [6]
  IC50: 16600 µM
Haemonchus contortus [7]
  IC50: 3660 µM

## CCCCC[C@H](O)CC(=O)CCc1ccc(O)c(OC)c1 [GINGEROL]
Rodentolepis nana
  EC: 0.001 mM

## CCCC(=O)C1=C(O)C(C)(C)C(O)=C(Cc2c(OC)cc(O)c(C(=O)CCC)c2O)C1=O [DESASPIDIN]
Schistosoma mansoni
  EC: 0.01 mM

## CCCC(=O)C1=C(O)C(C)(C)C(O)=C(Cc2c(O)c(CC3=C(O)C(C)(C)C(O)=C(C(C)=O)C3=O)c(O)c(C(=O)CCC)c2O)C1=O
[3]
  IC50: 37 µM

## CCCCC/C=C/C(=O)CCc1ccc(O)c(OC)c1 [SHOGAOL]
Rodentolepis nana
  EC: 0.001 mM

## CCC/C=C/C(=O)CCc1ccc(O)c(OC)c1
Rodentolepis nana
  EC: 0.001 mM

## CCO[C@@H]1O[C@H](CO)[C@H](O)[C@H](O)[C@H]1O
Brugia malayi
  EC: >2.4 mM

## C[C@H]1[C@H](C)CC[C@]2(C(=O)O)CC[C@]3(C)C(=CC[C@@H]4[C@@]5(C)CC[C@H](O)C(C)(C)[C@@H]5CC[C@]43C)[C@H]12 [URSOLIC ACID]
Caenorhabditis elegans
  IC50: 50 µM
Setaria cervi
  EC: 0.004 mM
Meloidogyne incognita [1]
  EC: 2.18 mM

## CCCCCCCCC/C=C/C(=O)CCc1ccc(O)c(OC)c1
Rodentolepis nana
  EC: 0.001 mM

## O=C1c2cccc(O)c2C(=O)C2C(O)=C(O)C(CO)=CC12 (stereo not given)
Schistosoma mansoni
  EC: 0.17 mM

## CCCCCCCCCCCCCCCCC(=O)OC[C@@H](O)CO
[5]
  EC: 29.5 mM

## O=C1C[C@@H](c2ccccc2)Oc2cc(O)cc(O)c21 [PINOCEMBRIN]
Taenia crassiceps
  IC50: 2 µM

## C=CCc1ccc(OC)c(OC)c1 [METHYLEUGENOL]
Meloidogyne incognita [1]
  IC50: 500 µM

## COc1cc(CC/C=C/C(=O)CCc2ccc(O)c(OC)c2)ccc1O
Rodentolepis nana
  EC: 0.001 mM

## CCCCC[C@H](O)C[C@@H](O)CCc1ccc(O)c(OC)c1
Rodentolepis nana
  EC: 0.001 mM

## C[C@@H]1CC[C@]2(C(=O)O)CC[C@]3(C)C(=CC[C@@H]4[C@@]5(C)CC[C@H](O)C(C)(C)[C@@H]5CC[C@]43C)[C@@H]2[C@]1(C)O [POMOLIC ACID]
Meloidogyne incognita [1]
  EC: 2.11 mM

## O=C(O)c1ccc(O)c(O)c1 [PROTOCATECHUIC ACID]
Meloidogyne incognita [10]
  EC: 0.78 mM

## C=C1CC[C@H]2[C@@](C)(CCC[C@]2(C)C(=O)O)[C@@H]1C/C=C(\C)[C@@H]1CCc2c(C)c(CC3=C(O)C(C)(C)C(O)=C(C(C)=O)C3=O)c(O)c(C(=O)CCC)c2O1
[3]
  IC50: 118 µM

## CO[C@H]1[C@H](O)[C@@H](O)[C@@H](O)[C@H](O)[C@@H]1O [METHYLINOSITOL]
Haemonchus contortus [8]
  IC50: 22700 µM

## Cc1ccc(C(C)C)cc1 [P-CYMENE]
Meloidogyne incognita [4]
  IC50: 3240 µM

## CCCC(=O)C1=C(O)C(C)(C)C(O)=C(Cc2c(O)c(C)c(OC)c(C(=O)CCC)c2O)C1=O
Schistosoma mansoni
  EC: 0.01 mM

## COc1cc(/C=C/C(=O)CC(=O)/C=C/c2ccc(O)c(OC)c2)ccc1O [CURCUMIN]
Schistosoma mansoni
  EC: 0.005 mM

## CCCCCCCCCCCCCCCCCCCCCC(=O)OC[C@@H](O)CO
[5]
  EC: 23.24 mM

## C=C(C)[C@@H]1CC[C@]2(C)CC[C@]3(C)[C@H](CC[C@@H]4[C@@]5(C)CC[C@H](O)C(C)(C)[C@@H]5CC[C@]43C)[C@@H]12 [LUPEOL]
Caenorhabditis elegans
  IC50: 5 to 6 µM
Haemonchus contortus [8]
  IC50: 50 µM
[9]
  IC50: 190 µM

## CC1(C)OC(=O)NC(C(=O)O)c2ccc(O)cc21 (stereo not given)
Metaphire posthuma
  EC: 3.9 mM
Ascaridia galli
  EC: 3.9 mM

## C=C1C(=O)O[C@@H]2[C@H]3C(CO)=CC(=O)C3=C(C)C[C@@H](O)[C@@H]12 [LACTUCIN]
Haemonchus contortus [2]
  EC: 2.89 mM

## CC[C@H](CC[C@@H](C)[C@H]1CC[C@@H]2[C@]1(C)CC[C@H]1[C@@]2(C)CC=C2C[C@@H](O)CC[C@@]21C)C(C)C
Brugia malayi
  EC: >1.2 mM

## CCCCC[C@H](O)CC(=O)CCc1cc(O)c(O)c(OC)c1
Rodentolepis nana
  EC: 0.001 mM

## O=c1c(-c2ccc(O)cc2)coc2cc(O)cc(O)c12 [GENISTEIN]
Paramphistomum
  EC: 0.74 mM
[11]
  EC: 0.74 mM

## CC(C)=CC(=O)O[C@@H]1C[C@@H](C)C(C)(O)[C@H]2C3=CC[C@@H]4[C@@]5(C)CC[C@H](O)C(C)(C)[C@@H]5CC[C@@]4(C)[C@]3(C)CC[C@]21C(=O)O (stereo not given in full)
Meloidogyne incognita [1]
  EC: 1.75 mM

## CC(C)[C@@]12C=C[C@@](C)(CC1)OO2 [(Z)-ASCARIDOLE]
Meloidogyne incognita [4]
  IC50: 190 µM

## CC1=CC2C(=O)c3cccc(O)c3C(=O)C2C(O)=C1O (stereo not given)
Schistosoma mansoni
  EC: 0.19 mM

## C=C1CC[C@H]2[C@@](C)(CCC[C@]2(C)C(=O)O)[C@@H]1C/C=C(\C)[C@H]1CCc2c(O)c(C(=O)CCC)c(O)c(CC3=C(O)C(C)(C)C(O)=C(C(C)=O)C3=O)c2O1
[3]
  IC50: 22 µM

## CCCC(=O)c1c(O)c(CC2=C(O)C(C)(C)C(O)=C(C(C)=O)C2=O)c(O)c(CC2=C(O)C(C)(C)C(O)=C(C(C)=O)C2=O)c1O
[3]
  IC50: 28 µM

## CC1(C)CC[C@]2(C(=O)O)CC[C@]3(C)C(=CC[C@@H]4[C@@]5(C)CC[C@H](O)C(C)(C)[C@@H]5CC[C@]43C)[C@@H]2C1 [OLEANOLIC_ACID]
Brugia malayi
  EC: 0.06 to 0.13 mM

## CCCCCCCCC[C@H](O)CC(=O)CCc1ccc(O)c(OC)c1
Rodentolepis nana
  EC: 0.001 mM

## C=C1C(=O)O[C@@H]2[C@H]1CC/C(C)=C/CC[C@]1(C)O[C@@H]21
Panagrellus redivivus
  IC50: 180 µM
[12]
  IC50: 280 µM

## C=C(C)[C@@H]1CCC2(C)OC2C1 (single isomer, unassigned; (+))
Schistosoma mansoni
  EC: 0.16 mM
